Test results published in PubChem BioAssay (NCI).
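Grown in 96-well plates, cells were treated for 48 hours with each compound at five concentrations. Insufficient inhibition: endpoint recorded as highest concentration tested. TGI is the concentration that stops growth completely.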

Key:
Assay in all cases: growth of human tumour cells (NCI), 48 h
OVCAR-8 ovarian = tested on: OVCAR-8 ovarian
SNB-19 CNS = tested on: SNB-19 CNS
U251 CNS = tested on: U251 CNS
HT29 colon = tested on: HT29 colon
A498 renal = tested on: A498 renal
MDA-MB-231 breast = tested on: MDA-MB-231 breast
A549 NSCLC = tested on: A549 NSCLC
OVCAR-5 ovarian = tested on: OVCAR-5 ovarian
UACC-257 melanoma = tested on: UACC-257 melanoma
BT-549 breast = tested on: BT-549 breast
LOX IMVI melanoma = tested on: LOX IMVI melanoma
MALME-3M melanoma = tested on: MALME-3M melanoma
SW-620 colon = tested on: SW-620 colon
OVCAR-3 ovarian = tested on: OVCAR-3 ovarian
SK-MEL-2 melanoma = tested on: SK-MEL-2 melanoma
HCT-15 colon = tested on: HCT-15 colon
RXF 393 renal = tested on: RXF 393 renal
SN12C renal = tested on: SN12C renal
HCC-2998 colon = tested on: HCC-2998 colon
ACHN renal = tested on: ACHN renal
SK-MEL-28 melanoma = tested on: SK-MEL-28 melanoma
SK-MEL-5 melanoma = tested on: SK-MEL-5 melanoma
HCT-116 colon = tested on: HCT-116 colon
SNB-75 CNS = tested on: SNB-75 CNS
HS 578T breast = tested on: HS 578T breast
KM12 colon = tested on: KM12 colon
NCI-H522 lung = tested on: NCI-H522 lung
T-47D breast = tested on: T-47D breast
SR leukemia = tested on: SR leukemia
MCF7 breast = tested on: MCF7 breast
NCI-H460 lung = tested on: NCI-H460 lung
HOP-62 NSCLC = tested on: HOP-62 NSCLC
NCI-H226 lung = tested on: NCI-H226 lung
MOLT-4 leukemia = tested on: MOLT-4 leukemia
CAKI-1 renal = tested on: CAKI-1 renal
UACC-62 melanoma = tested on: UACC-62 melanoma
M14 melanoma = tested on: M14 melanoma
UO-31 renal = tested on: UO-31 renal
DU-145 prostate = tested on: DU-145 prostate
NCI/ADR-RES ovarian = tested on: NCI/ADR-RES ovarian
SK-OV-3 ovarian = tested on: SK-OV-3 ovarian
PC-3 prostate = tested on: PC-3 prostate
786-0 renal = tested on: 786-0 renal
COLO 205 colon = tested on: COLO 205 colon
RPMI-8226 leukemia = tested on: RPMI-8226 leukemia
TK-10 renal = tested on: TK-10 renal
SF-268 CNS = tested on: SF-268 CNS
EKVX NSCLC = tested on: EKVX NSCLC
OVCAR-4 ovarian = tested on: OVCAR-4 ovarian
CCRF-CEM leukemia = tested on: CCRF-CEM leukemia
SF-295 CNS = tested on: SF-295 CNS
MDA-N = tested on: MDA-N
MDA-MB-435 = tested on: MDA-MB-435
IGROV1 ovarian = tested on: IGROV1 ovarian
SF-539 CNS = tested on: SF-539 CNS
HL-60(TB) leukemia = tested on: HL-60(TB) leukemia
K-562 leukemia = tested on: K-562 leukemia
NCI-H23 lung = tested on: NCI-H23 lung

With `Cc1nc2ccc(N=NN(C)C)cc2[nH]1` the TGI (OVCAR-8 ovarian) was greater than 100 µM, the TGI (SNB-19 CNS) was greater than 100 µM and the TGI (U251 CNS) was greater than 100 µM. The TGI (HT29 colon) was greater than 100 µM, the TGI (A498 renal) was greater than 100 µM and the TGI (MDA-MB-231 breast) was greater than 100 µM. The TGI (A549 NSCLC) was greater than 100 µM, the TGI (OVCAR-5 ovarian) was greater than 100 µM and the TGI (UACC-257 melanoma) was greater than 100 µM. The TGI (BT-549 breast) was greater than 100 µM, the TGI (LOX IMVI melanoma) was greater than 100 µM and the TGI (MALME-3M melanoma) was greater than 100 µM. For the same molecule, the TGI (SW-620 colon) was greater than 100 µM, the TGI (OVCAR-3 ovarian) was greater than 100 µM and the TGI (SK-MEL-2 melanoma) was greater than 100 µM. The TGI (HCT-15 colon) was greater than 100 µM, the TGI (RXF 393 renal) was greater than 100 µM and the TGI (SN12C renal) was greater than 100 µM. It also gave a TGI (HCC-2998 colon) greater than 100 µM, a TGI (ACHN renal) greater than 100 µM and a TGI (SK-MEL-28 melanoma) greater than 100 µM. For the same molecule, the TGI (SK-MEL-5 melanoma) was greater than 100 µM, the TGI (HCT-116 colon) was greater than 100 µM and the TGI (SNB-75 CNS) was greater than 100 µM. For the same molecule, the TGI (HS 578T breast) was greater than 100 µM, the TGI (KM12 colon) was greater than 100 µM and the TGI (NCI-H522 lung) was greater than 100 µM. The TGI (T-47D breast) was greater than 100 µM, the TGI (SR leukemia) was greater than 100 µM and the TGI (MCF7 breast) was greater than 100 µM. For the same molecule, the TGI (NCI-H460 lung) was greater than 100 µM, the TGI (HOP-62 NSCLC) was greater than 100 µM and the TGI (NCI-H226 lung) was greater than 100 µM. The TGI (MOLT-4 leukemia) was greater than 100 µM, the TGI (CAKI-1 renal) was greater than 100 µM and the TGI (UACC-62 melanoma) was greater than 100 µM. For the same molecule, the TGI (M14 melanoma) was greater than 100 µM, the TGI (UO-31 renal) was greater than 100 µM and the TGI (DU-145 prostate) was greater than 100 µM. The TGI (NCI/ADR-RES ovarian) was greater than 100 µM, the TGI (SK-OV-3 ovarian) was greater than 100 µM and the TGI (PC-3 prostate) was greater than 100 µM. The TGI (786-0 renal) was greater than 100 µM, the TGI (COLO 205 colon) was greater than 100 µM and the TGI (RPMI-8226 leukemia) was greater than 100 µM. It also gave a TGI (TK-10 renal) greater than 100 µM, a TGI (SF-268 CNS) greater than 100 µM and a TGI (EKVX NSCLC) greater than 100 µM. It also gave a TGI (OVCAR-4 ovarian) greater than 100 µM, a TGI (CCRF-CEM leukemia) greater than 100 µM and a TGI (SF-295 CNS) greater than 100 µM. For the same molecule, the TGI (MDA-N) was greater than 100 µM, the TGI (MDA-MB-435) was greater than 100 µM and the TGI (IGROV1 ovarian) was greater than 100 µM.

For `COC(=O)/C=C(\S/C(=C(/c1ccc(OC)cc1)n1cc(C(=O)OC)c(C(=O)OC)n1)c1ccc(OC)cc1)C(=O)OC`, the TGI (OVCAR-8 ovarian) was 4.8 µM, the TGI (SNB-19 CNS) was greater than 100 µM and the TGI (SF-539 CNS) was greater than 100 µM. For the same molecule, the TGI (U251 CNS) was greater than 100 µM, the TGI (HT29 colon) was 30.7 µM and the TGI (A498 renal) was greater than 100 µM. It also gave a TGI (MDA-MB-231 breast) greater than 100 µM, a TGI (A549 NSCLC) greater than 100 µM and a TGI (OVCAR-5 ovarian) of 69.7 µM. The TGI (UACC-257 melanoma) was 25.3 µM, the TGI (BT-549 breast) was greater than 100 µM and the TGI (LOX IMVI melanoma) was 25.4 µM. The TGI (MALME-3M melanoma) was 37.1 µM, the TGI (SW-620 colon) was greater than 100 µM and the TGI (OVCAR-3 ovarian) was 13.2 µM. It also gave a TGI (SK-MEL-2 melanoma) greater than 100 µM, a TGI (HCT-15 colon) of 37.9 µM and a TGI (RXF 393 renal) of 29.4 µM. It also gave a TGI (SN12C renal) of 51.4 µM, a TGI (ACHN renal) of 18.5 µM and a TGI (SK-MEL-28 melanoma) greater than 100 µM. For the same molecule, the TGI (SK-MEL-5 melanoma) was greater than 100 µM, the TGI (HCT-116 colon) was 31.3 µM and the TGI (SNB-75 CNS) was greater than 100 µM. For the same molecule, the TGI (HS 578T breast) was greater than 100 µM, the TGI (KM12 colon) was greater than 100 µM and the TGI (T-47D breast) was 10.2 µM. The TGI (MCF7 breast) was greater than 100 µM, the TGI (NCI-H460 lung) was greater than 100 µM and the TGI (HOP-62 NSCLC) was greater than 100 µM. For the same molecule, the TGI (NCI-H226 lung) was greater than 100 µM, the TGI (HL-60(TB) leukemia) was 7.64 µM and the TGI (MOLT-4 leukemia) was greater than 100 µM. For the same molecule, the TGI (CAKI-1 renal) was 6.41 µM, the TGI (UACC-62 melanoma) was greater than 100 µM and the TGI (M14 melanoma) was greater than 100 µM. The TGI (K-562 leukemia) was greater than 100 µM, the TGI (UO-31 renal) was 16 µM and the TGI (DU-145 prostate) was 40.3 µM. The TGI (NCI/ADR-RES ovarian) was greater than 100 µM, the TGI (SK-OV-3 ovarian) was greater than 100 µM and the TGI (PC-3 prostate) was greater than 100 µM. The TGI (786-0 renal) was 26.9 µM, the TGI (COLO 205 colon) was 8.64 µM and the TGI (RPMI-8226 leukemia) was greater than 100 µM. It also gave a TGI (TK-10 renal) of 19 µM, a TGI (SF-268 CNS) of 78.8 µM and a TGI (EKVX NSCLC) of 49.5 µM. It also gave a TGI (OVCAR-4 ovarian) of 68.3 µM, a TGI (CCRF-CEM leukemia) of 15.4 µM and a TGI (SF-295 CNS) greater than 100 µM. It also gave a TGI (MDA-N) greater than 100 µM, a TGI (MDA-MB-435) of 34.2 µM and a TGI (IGROV1 ovarian) of 22.5 µM. It also gave a TGI (NCI-H23 lung) greater than 100 µM.
